Data set [1] can be described thus: logP determination by HPLC on a reversed-phase column (C18). In kind it is physicochemical. The settings on record: reversed-phase column (C18); for logP^a): HPLC-MS method a); for log P: HPLC-MS, Table I-T3.
The test system of a further data set is Rhipicephalus sanguineus. Briefly: Rhipicephalus sanguineus - in vitro contact tests with adult brown dog ticks. In kind it is in vivo. The settings on record: after 48 h, ticks dead or moribund. The procedure, abridged: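 Efficacy, scored after 48 h, is the % of adult ticks dead or moribund, i.e. unable to climb away on a 45-50° C hotplate within 5 min. Tubes held 5-10 ticks in the dark at room temperature, on an acetone-applied coating of 5 μg/cm^2 (900 ppm solution).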

Data set [2] deals with Ctenocephalides felis. Nature of the data set: Ctenocephalides felis - in vitro contact tests with adult cat fleas. The settings on record: application rate 5 μg/cm2 (=500 g/ha); after 48 h; fleas dead or moribund. In kind it is in vivo. The procedure, abridged: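 Efficacy, as percentage of fleas dead or moribund, was scored at 48 h by knocking fleas to the tube base. Exposure was by contact with a dried acetone film of compound at 5 μg/cm^2 area dose; 5–10 adults per tube, room temperature, ambient humidity.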

Another data set concerns Amblyomma hebraeum. Nature of the data set: Amblyomma hebaraeum test (tick nymphs, immersion). The format is in vivo. The settings on record: application rate 100 ppm; tick nymphs immersed one minute; after 42 days. The procedure, abridged: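 Mortality (%) is read 42 days post-treatment, where 0% means no ticks and 100% all ticks killed. Nymphs were dipped for 1 min into the test dilution (DMSO stock diluted with water) and afterwards stored on filter paper under controlled climate.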

Another data set deals with Boophilus microplus. Nature of the data set: Boophilus microplus - injection test. The format is in vivo. The note with it: application rate 20 μg/animal; injection into engorged adult female ticks; after 7 days. The method, boiled down: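 Five engorged adult female cattle ticks each received a 1 μl abdominal injection of compound solution in dimethyl sulphoxide. Fertile egg laying was assessed at 7 days, with doubtful eggs incubated about 42 days until hatch. 0% efficacy means all eggs fertile.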

For data set [3], the system named is Boophilus microplus Parkhurst strain, SP-resistant. Nature of the data set: Boophilus microplus - dip test. In kind it is in vivo. The note with it: application rate 100 ppm; dip of engorged adult female ticks; after 7 days. The method, boiled down: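 Compound dissolved in DMSO, diluted with water, and used to fully wet groups of 8-10 engorged female cattle ticks (SP-resistant Parkhurst strain). Fertile egg laying assessed at 7 days, doubtful eggs held ~42 days until hatch; 0% means all eggs fertile.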

For data set [4], the system named is Ctenocephalides felis. Nature of the data set: Ctenocephalides felis - oral test. In kind it is in vivo. The settings on record: application rate 100 ppm in citrated cattle blood; after 2 days. The method, boiled down:
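Roughly 20 unfed adult C. felis imbibe compound-dosed citrated cattle blood (DMSO formulation) across parafilm from a cylinder above their gauze chamber; percentage mortality recorded at day 2.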

For a further data set, the system named is Lucilia cuprina. Nature of the data set: Lucilia cuprina test. In kind it is in vivo. The settings on record: application rate 100 ppm; L1 larvae; after 2 days. The procedure, abridged: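 Mortality (%) of first-instar blowfly larvae, about 20 per vessel, recorded 2 days after exposure to compound-treated minced horsemeat. Compound dissolved in dimethyl sulphoxide, then water-diluted to the desired concentration.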

The next data set relates to Musca domestica. Nature of the data set: Musca domestica test. The settings on record: application rate 100 ppm; adult houseflies; after 2 days. The format is in vivo. The method, boiled down: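 First, 10 mg compound was taken up in 0.5 ml DMSO and then brought with water to the required concentration. This was applied with sugar solution to a sponge in vessels holding 10 adult flies; kill was assessed after 2 days.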

The subject of another data set is Myzus persicae. Briefly: Myzus persicae - spray test. The format is in vivo. The note with it: Chinese cabbage leaf discs, after 6 days. The procedure, abridged:
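Mortality of the green peach aphid, as % killed, was read 6 days after spraying infested Brassica pekinensis leaf discs. Compound formulated in acetone/dimethylformamide and made up with emulsifier-containing (1000 ppm) water.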

For a further data set, the system named is Phaedon cochleariae. Nature of the data set: Phaedon cochleariae - spray test. In kind it is in vivo. The settings on record: larvae on Chinese cabbage leaf discs, after 7 days. The method, boiled down: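 Mortality of mustard beetle larvae was scored as % at day 7 on Brassica pekinensis leaf discs. Discs had been treated by spraying at the desired concentration, using an acetone/dimethylformamide solution diluted in water with 1000 ppm alkylaryl polyglycol ether, and dried before larvae were added.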

In another data set the test system is Spodoptera frugiperda. Nature of the data set: Spodoptera frugiperda - spray test. In kind it is in vivo. The settings on record: caterpillars on maize leaf discs, after 7 days. The procedure, abridged: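 Percent mortality of Spodoptera frugiperda caterpillars scored 7 days after placing them on dried maize leaf discs sprayed at the desired concentration. Spray formulation: compound dissolved in acetone/dimethylformamide, made up with water containing 1000 ppm emulsifier.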

A further data set deals with Tetranychus urticae. Nature of the data set: Tetranychus urticae - spray test, OP-resistant. The format is in vivo. The settings on record: bean leaf discs, after 6 days. The method, boiled down: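 Mortality (%) read on day 6 after spraying Phaseolus vulgaris leaf discs carrying all mite stages with formulations at the desired concentration. Formulation: active ingredient in acetone plus dimethylformamide, made up with emulsifier-containing water (1000 ppm alkylaryl polyglycol ether).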

The structures appear in SMILES notation.

Broadly, the log P is a log measure of how a compound divides between an organic and an aqueous phase. A higher log P goes with higher lipophilicity. As to `Cc1cc(C(F)(C(F)(F)F)C(F)(F)F)cc(C(F)(F)F)c1-n1cc(-c2cnc(Cl)c(C(=O)NC3CC3)c2)cn1` [I-T3-106], the “logP^a)” value in [1] amounted to 4.0. Also, in data set [1], the “log P” value is on record as 4.0. The efficacy in the data set with Rhipicephalus sanguineus (application rate 5 μg/cm2), in the data set on Ctenocephalides felis [2], with Myzus persicae (application rate 500 g/ha), in the data set with Phaedon cochleariae (application rate 500 g/ha), with Spodoptera frugiperda (application rate 500 g/ha) and in the data set with Tetranychus urticae (application rate 500 g/ha) was 100% throughout. Moreover, the “efficacy (kill)” value in the data set with Amblyomma hebraeum, with Ctenocephalides felis [4], in the data set on Lucilia cuprina and in the data set with Musca domestica was 100% in each case. Further, the “efficacy (laying of fertile eggs)” value (in the data set on Boophilus microplus; in data set [3]) was 100% in each case.

Turning to `Cc1cc(C(F)(C(F)(F)F)C(F)(F)F)cc(C(F)(F)F)c1-n1cc(-c2cnc(Cl)c(C(=O)NC3(C#N)CC3)c2)cn1` [I-T3-108], in [1], the “logP^a)” value came out at 4.0. The “log P” value in data set [1] is listed as 4.0. The efficacy with Rhipicephalus sanguineus (application rate 1 μg/cm2), in the data set with Ctenocephalides felis [2], in the data set with Myzus persicae (application rate 500 g/ha), in the data set with Phaedon cochleariae (application rate 500 g/ha), in the data set on Spodoptera frugiperda (application rate 500 g/ha) and with Tetranychus urticae (application rate 500 g/ha) was 100% each time. Besides, the “efficacy (kill)” value in the data set with Amblyomma hebraeum, in the data set with Ctenocephalides felis [4], with Lucilia cuprina and in the data set with Musca domestica was 100% each time. Moreover, the “efficacy (laying of fertile eggs)” value (in the data set with Boophilus microplus; in data set [3]) was 100% in each case.

As for `CCc1cc(C(F)(C(F)(F)F)C(F)(F)F)cc(C)c1-n1cc(-c2cnc(Cl)c(C(=O)NC3CC3)c2)cn1` [I-T3-109], the “logP^a)” value in data set [1] is given as 4.2. Further, in [1], the “log P” value is 4.2. Further, the efficacy in the data set with Rhipicephalus sanguineus (application rate 5 μg/cm2) amounted to 100%; in the data set with Ctenocephalides felis [2], 100%; in the data set on Myzus persicae (application rate 500 g/ha), 90%; with Phaedon cochleariae (application rate 500 g/ha) it was 100%; in the data set on Spodoptera frugiperda (application rate 500 g/ha), 100%; with Tetranychus urticae (application rate 500 g/ha), 100%. Also, the “efficacy (kill)” value in the data set on Amblyomma hebraeum, in the data set on Ctenocephalides felis [4], in the data set on Lucilia cuprina and in the data set with Musca domestica was 100% throughout. The “efficacy (laying of fertile eggs)” value (in the data set with Boophilus microplus; in [3]) was 100% in each case.

`CCc1cc(C(F)(C(F)(F)F)C(F)(F)F)cc(C)c1-n1cc(-c2cnc(Cl)c(C(=O)NC3(C#N)CC3)c2)cn1` [I-T3-110]: the “logP^a)” value in data set [1] came out at 4.1. Moreover, the “log P” value in [1] was 4.1. For the same compound, the efficacy with Rhipicephalus sanguineus (application rate 5 μg/cm2), in the data set with Ctenocephalides felis [2], in the data set with Myzus persicae (application rate 500 g/ha), with Phaedon cochleariae (application rate 500 g/ha), with Spodoptera frugiperda (application rate 500 g/ha) and in the data set on Tetranychus urticae (application rate 500 g/ha) was 100% in each case. In addition, the “efficacy (kill)” value in the data set with Amblyomma hebraeum, in the data set on Ctenocephalides felis [4], with Lucilia cuprina and with Musca domestica was 100% throughout. The “efficacy (laying of fertile eggs)” value (with Boophilus microplus; in data set [3]) was 100% each time.

With `O=C(NC1CC1)c1cc(-c2cnn(-c3c(Cl)cc(C(F)(C(F)(F)F)C(F)(F)F)cc3C(F)(F)F)c2)cnc1Cl` [I-T3-112], the “logP^a)” value in data set [1] amounted to 4.0. Moreover, the “log P” value in data set [1] stood at 4.0. The efficacy in the data set on Rhipicephalus sanguineus (application rate 5 μg/cm2), in the data set on Ctenocephalides felis [2], with Myzus persicae (application rate 100 g/ha), with Phaedon cochleariae (application rate 500 g/ha), in the data set with Spodoptera frugiperda (application rate 500 g/ha) and with Tetranychus urticae (application rate 500 g/ha) was 100% each time. Further, the “efficacy (kill)” value in the data set with Amblyomma hebraeum, with Ctenocephalides felis [4], in the data set with Lucilia cuprina and in the data set with Musca domestica was 100% throughout. In addition, the “efficacy (laying of fertile eggs)” value (in the data set with Boophilus microplus; in data set [3]) was 100% throughout.

In the case of `N#CC1(NC(=O)c2cc(-c3cnn(-c4c(Cl)cc(C(F)(C(F)(F)F)C(F)(F)F)cc4C(F)(F)F)c3)cnc2Cl)CC1` [I-T3-114], in data set [1], the “logP^a)” value worked out at 4.0. For the same compound, in data set [1], the “log P” value is listed as 4.0. Also, the efficacy in the data set on Rhipicephalus sanguineus (application rate 1 μg/cm2) was determined as 100%; with Ctenocephalides felis [2], 100%; in the data set on Myzus persicae (application rate 500 g/ha), 90%; with Phaedon cochleariae (application rate 500 g/ha), 100%; in the data set with Spodoptera frugiperda (application rate 500 g/ha), 100%; in the data set on Tetranychus urticae (application rate 500 g/ha), 100%. The “efficacy (kill)” value with Amblyomma hebraeum, in the data set on Ctenocephalides felis [4], in the data set on Lucilia cuprina and in the data set with Musca domestica was 100% throughout. Besides, the “efficacy (laying of fertile eggs)” value (with Boophilus microplus; in [3]) was 100% each time.

Take `Cc1cc(C(F)(C(F)(F)F)C(F)(F)F)cc(C(F)(F)F)c1-n1cc(-c2cnc(C)c(C(=O)NC3CC3)c2)cn1` [I-T3-117]: in [1], the “logP^a)” value was 3.5. In addition, the “log P” value in data set [1] was 3.5. In addition, the efficacy with Rhipicephalus sanguineus (application rate 5 μg/cm2) is 100%; with Ctenocephalides felis [2], 100%; with Myzus persicae (application rate 500 g/ha), 90%; with Phaedon cochleariae (application rate 500 g/ha), 100%; in the data set with Spodoptera frugiperda (application rate 500 g/ha), 100%; in the data set on Tetranychus urticae (application rate 500 g/ha) it was 90%. Also, the “efficacy (kill)” value in the data set with Amblyomma hebraeum, in the data set with Ctenocephalides felis [4], in the data set on Lucilia cuprina and with Musca domestica was 100% in each case. Besides, the “efficacy (laying of fertile eggs)” value (in the data set with Boophilus microplus; in [3]) was 100% in each case.

Regarding `Cc1cc(C(F)(C(F)(F)F)C(F)(F)F)cc(C(F)(F)F)c1-n1cc(-c2cnc(C)c(C(=O)NC3(C#N)CC3)c2)cn1` [I-T3-119], in data set [1], the “logP^a)” value came to 3.6. Further, the “log P” value in data set [1] was 3.6. The efficacy is given as 100% in the data set on Rhipicephalus sanguineus (application rate 5 μg/cm2); 100% in the data set on Ctenocephalides felis [2]; 90% in the data set with Myzus persicae (application rate 500 g/ha); 100% in the data set on Phaedon cochleariae (application rate 500 g/ha); 100% with Spodoptera frugiperda (application rate 500 g/ha); 100% with Tetranychus urticae (application rate 500 g/ha). In addition, the “efficacy (kill)” value with Amblyomma hebraeum, with Ctenocephalides felis [4], with Lucilia cuprina and with Musca domestica was 100% each time. Also, the “efficacy (laying of fertile eggs)” value (in the data set on Boophilus microplus; in data set [3]) was 100% each time.

With `Cc1cc(C(F)(C(F)(F)F)C(F)(F)F)cc(C(F)(F)F)c1-n1cc(-c2cnc(C)c(C(=O)N(C)C3(C#N)CC3)c2)cn1` [I-T3-123], the “logP^a)” value in data set [1] is 3.9. In addition, the “log P” value in [1] is given as 3.9. Moreover, the efficacy in the data set with Rhipicephalus sanguineus (application rate 1 μg/cm2) came to 80%; in the data set on Ctenocephalides felis [2] it was 100%; with Myzus persicae (application rate 100 g/ha), 100%; with Phaedon cochleariae (application rate 100 g/ha) it was 100%; in the data set on Spodoptera frugiperda (application rate 100 g/ha), 100%; in the data set on Tetranychus urticae (application rate 100 g/ha), 90%. Further, the “efficacy (kill)” value in the data set with Amblyomma hebraeum came to 80%; in the data set on Ctenocephalides felis [4], 100%; in the data set on Lucilia cuprina, 100%; with Musca domestica, 100%. Also, the “efficacy (laying of fertile eggs)” value (with Boophilus microplus; in [3]) was 100% in each case.

Source of the values: patent US10150737B2, “Compounds for controlling arthropods” (priority 2013, dated 2018).
